System: Mus musculus
Experiment: Acute toxicity in mouse assessed as changes in nature of urine up to 3 g/kg, po up to 14 days
Conditions: in vivo, 336 h

In the case of `CC(C)=CCC/C(C)=C/CCC1=C[C@H](c2cc(O)ccc2O)OC1=O`, the Activity is reported as “Non-Toxic”.

From ChEMBL document CHEMBL3994580, “A novel class of α-glucosidase and HMG-CoA reductase inhibitors from Ganoderma leucocontextum and the anti-diabetic properties of ganomycin I in KK-Ay mice” (Eur J Med Chem, 2017)
